In ChEMBL document CHEMBL4004838, “Design and synthesis of novel phenyl -1, 4-beta-carboline-hybrid molecules as potential anticancer agents” (Eur J Med Chem, 2017):
In brackets after ≈: the same amount, converted by molar mass.

Columns and labels:
SNB-19 = test: Growth inhibition of human SNB19 cells assessed as cell growth at 100 uM incubated for 48 hrs by sulforhodamine B assay relative to control; assay type: functional; details: SNB-19, 48 h, read-out: Activity
MDA-MB-231 = test: Growth inhibition of human MDA-MB-231 cells assessed as cell growth at 0.1 uM incubated for 48 hrs by sulforhodamine B assay relative to control; assay type: functional; details: MDA-MB-231, 48 h, read-out: Activity
Albumin [1] = target: T1, Albumin (Bos taurus, UniProt P02769); test: Binding affinity to Bovine serum albumin assessed as fluorescence quenching at […] by fluorescence spectroscopic assay; assay type: ADME; details: cattle, isolated protein
T1 sequence (P02769 whole entry): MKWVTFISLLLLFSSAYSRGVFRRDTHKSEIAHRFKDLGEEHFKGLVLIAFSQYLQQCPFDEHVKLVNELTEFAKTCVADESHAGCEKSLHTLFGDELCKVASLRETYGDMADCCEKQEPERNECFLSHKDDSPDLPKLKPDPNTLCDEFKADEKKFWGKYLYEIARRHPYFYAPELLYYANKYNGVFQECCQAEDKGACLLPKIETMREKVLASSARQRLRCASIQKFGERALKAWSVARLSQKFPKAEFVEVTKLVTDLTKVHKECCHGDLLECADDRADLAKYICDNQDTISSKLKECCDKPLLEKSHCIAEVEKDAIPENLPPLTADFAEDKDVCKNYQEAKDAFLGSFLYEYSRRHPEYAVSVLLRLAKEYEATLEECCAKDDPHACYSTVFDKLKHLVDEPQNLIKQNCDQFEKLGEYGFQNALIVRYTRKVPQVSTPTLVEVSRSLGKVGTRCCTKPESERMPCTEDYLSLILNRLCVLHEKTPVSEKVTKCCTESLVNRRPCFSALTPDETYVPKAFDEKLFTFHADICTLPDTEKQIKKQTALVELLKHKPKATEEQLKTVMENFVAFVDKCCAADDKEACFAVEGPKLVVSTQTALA

MCF7 = test: Cytotoxicity against human MCF7 cells assessed as cell viability after 72 hrs by MTT assay; assay type: functional, cell-based; details: MCF7, 72 h
NCI-H322M = test: Growth inhibition of human NCI-H322M cells assessed as cell growth at 100 uM incubated for 48 hrs by sulforhodamine B assay relative to control; assay type: functional; details: read-out: Activity
NCI-H226 [2] = test: Growth inhibition of human NCI-H226 cells incubated for 48 hrs by sulforhodamine B assay; assay type: functional; details: NCI-H226, 48 h
SF-539 = test: Growth inhibition of human SF539 cells assessed as cell growth at 100 uM incubated for 48 hrs by sulforhodamine B assay relative to control; assay type: functional; details: SF-539, 48 h, read-out: Activity
SK-MEL-28 = test: Growth inhibition of human SK-MEL-28 cells assessed as cell growth at 1 uM incubated for 48 hrs by sulforhodamine B assay relative to control; assay type: functional; details: SK-MEL-28, 48 h, read-out: Activity
M14 = test: Growth inhibition of human M14 cells assessed as cell growth at 0.01 uM incubated for 48 hrs by sulforhodamine B assay relative to control; assay type: functional; details: M14, 48 h, read-out: Activity
UO-31 = test: Growth inhibition of human UO31 cells assessed as cell growth at 0.01 uM incubated for 48 hrs by sulforhodamine B assay relative to control; assay type: functional; details: UO-31, 48 h, read-out: Activity
SN12C [3] = test: Growth inhibition of human SN12C cells assessed as cell growth at 0.1 uM incubated for 48 hrs by sulforhodamine B assay relative to control; assay type: functional; details: read-out: Activity
SN12C [4] = test: Growth inhibition of human SN12C cells assessed as cell growth at 100 uM incubated for 48 hrs by sulforhodamine B assay relative to control; assay type: functional; details: read-out: Activity
HepG2 = test: Cytotoxicity against human HepG2 cells assessed as cell viability after 72 hrs by MTT assay; assay type: functional, cell-based; details: HepG2, 72 h
BT-549 = test: Growth inhibition of human BT549 cells incubated for 48 hrs by sulforhodamine B assay; assay type: functional; details: BT-549, 48 h
SN12C [5] = test: Growth inhibition of human SN12C cells assessed as cell growth at 0.01 uM incubated for 48 hrs by sulforhodamine B assay relative to control; assay type: functional; details: read-out: Activity
OVCAR-4 [6] = test: Growth inhibition of human OVCAR4 cells incubated for 48 hrs by sulforhodamine B assay; assay type: functional; details: OVCAR-4, 48 h
SN12C [7] = test: Growth inhibition of human SN12C cells assessed as cell growth at 1 uM incubated for 48 hrs by sulforhodamine B assay relative to control; assay type: functional; details: read-out: Activity
OVCAR-4 [8] = test: Growth inhibition of human OVCAR4 cells assessed as cell growth at 1 uM incubated for 48 hrs by sulforhodamine B assay relative to control; assay type: functional; details: OVCAR-4, 48 h, read-out: Activity
NCI-H226 [9] = test: Growth inhibition of human NCI-H226 cells assessed as cell growth at 100 uM incubated for 48 hrs by sulforhodamine B assay relative to control; assay type: functional; details: NCI-H226, 48 h, read-out: Activity
SN12C [10] = test: Growth inhibition of human SN12C cells incubated for 48 hrs by sulforhodamine B assay; assay type: functional
LNCaP = test: Cytotoxicity against human LNCAP cells assessed as cell viability after 72 hrs by MTT assay; assay type: functional, cell-based
DU-145 = test: Growth inhibition of human DU145 cells assessed as cell growth at 100 uM incubated for 48 hrs by sulforhodamine B assay relative to control; assay type: functional; details: DU-145, 48 h, read-out: Activity
OVCAR-8 [11] = test: Growth inhibition of human OVCAR8 cells assessed as cell growth at 0.1 uM incubated for 48 hrs by sulforhodamine B assay relative to control; assay type: functional; details: OVCAR-8, 48 h, read-out: Activity
Albumin [12] = target: T1, Albumin; test: Binding affinity to Bovine serum albumin assessed as fluorescence quenching at 0.1 to 1 uM at […] by fluorescence spectroscopic assay; assay type: ADME; details: cattle, isolated protein
NCI/ADR-RES = test: Growth inhibition of human NCI-ADR-RES cells assessed as cell growth at 0.01 uM incubated for 48 hrs by sulforhodamine B assay relative to control; assay type: functional; details: read-out: Activity
OVCAR-8 [13] = test: Growth inhibition of human OVCAR8 cells assessed as cell growth at 100 uM incubated for 48 hrs by sulforhodamine B assay relative to control; assay type: functional; details: OVCAR-8, 48 h, read-out: Activity
OVCAR-8 [14] = test: Growth inhibition of human OVCAR8 cells incubated for 48 hrs by sulforhodamine B assay; assay type: functional; details: OVCAR-8, 48 h
OVCAR-8 [15] = test: Growth inhibition of human OVCAR8 cells assessed as cell growth at 1 uM incubated for 48 hrs by sulforhodamine B assay relative to control; assay type: functional; details: OVCAR-8, 48 h, read-out: Activity
[16] = read-out: LC50 (the source's name)
[17] = read-out: pLC50 (the source's name) (converted)

## c1ccc2c3c([nH]c2c1)C(c1ccc(C2NCCc4c2[nH]c2ccccc42)cc1)NCC3 (racemic)
SNB-19
  growth at 100 µM: 88%
MDA-MB-231
  growth at 0.1 µM: 97%
Albumin [1]
  Activity: Dose-dependent effect
MCF7
  IC50: 3.34 µg/mL (≈ 7.98 µM)
NCI-H322M
  growth at 100 µM: 96%
NCI-H226 [2]; read-out: GI50
  GI50: 1.96 µM
NCI-H226 [2]; [16]
  CC50: 9.1 µM
NCI-H226 [2]; read-out: TGI
  TGI: 4.23 µM
NCI-H226 [2]; read-out: pGI50 (converted)
  GI50: 1.95 µM
NCI-H226 [2]; [17]
  CC50: 9.12 µM
NCI-H226 [2]; read-out: pTGI (converted)
  TGI: 4.27 µM
SF-539
  growth at 100 µM: 97%
SK-MEL-28
  growth at 1 µM: 91%
M14
  growth at 0.01 µM: 92%
UO-31
  growth at 0.01 µM: 89%
SN12C [3]
  growth at 0.1 µM: 95%
SN12C [4]
  growth at 100 µM: -93%
HepG2
  IC50: 4.43 µg/mL (≈ 10.6 µM)
BT-549; read-out: GI50
  GI50: 1.11 µM
BT-549; [16]
  CC50: 5.37 µM
BT-549; read-out: TGI
  TGI: 2.44 µM
BT-549; read-out: pGI50 (converted)
  GI50: 11.2 µM
BT-549; [17]
  CC50: 53.7 µM
BT-549; read-out: pTGI (converted)
  TGI: 24.5 µM
SN12C [5]
  growth at 0.01 µM: 96%
OVCAR-4 [6]; read-out: GI50
  GI50: 1.14 µM
OVCAR-4 [6]; [16]
  CC50: 5.61 µM
OVCAR-4 [6]; read-out: TGI
  TGI: 2.53 µM
OVCAR-4 [6]; read-out: pGI50 (converted)
  GI50: 1.15 µM
OVCAR-4 [6]; [17]
  CC50: 5.62 µM
OVCAR-4 [6]; read-out: pTGI (converted)
  TGI: 2.51 µM
SN12C [7]
  growth at 1 µM: 77%
OVCAR-4 [8]
  growth at 1 µM: 59%
NCI-H226 [9]
  growth at 100 µM: 60%
SN12C [10]; read-out: GI50
  GI50: 1.47 µM
SN12C [10]; [16]
  CC50: 6.31 µM
SN12C [10]; read-out: TGI
  TGI: 3.05 µM
SN12C [10]; read-out: pGI50 (converted)
  GI50: 1.48 µM
SN12C [10]; [17]
  CC50: 6.31 µM
SN12C [10]; read-out: pTGI (converted)
  TGI: 3.02 µM
LNCaP
  IC50: 5.52 µg/mL (≈ 13.2 µM)
DU-145
  growth at 100 µM: -94%

## c1ccc2[nH]c(-c3ccc(-c4nccc5c4[nH]c4ccccc45)cc3)nc2c1
SNB-19
  growth at 100 µM: 29%
MDA-MB-231
  growth at 0.1 µM: 94%
OVCAR-8 [11]
  growth at 0.1 µM: 103%
Albumin [12]
  Activity: Active
NCI/ADR-RES
  growth at 0.01 µM: 99%
NCI-H322M
  growth at 100 µM: 75%
NCI-H226 [2]; read-out: GI50
  GI50: 2.27 µM
NCI-H226 [2]; [16]
  CC50: 9.73 µM
NCI-H226 [2]; read-out: TGI
  TGI: 5.56 µM
NCI-H226 [2]; read-out: pGI50 (converted)
  GI50: 2.29 µM
NCI-H226 [2]; [17]
  CC50: 97.7 µM
NCI-H226 [2]; read-out: pTGI (converted)
  TGI: 5.5 µM
SF-539
  growth at 100 µM: 70%
SK-MEL-28
  growth at 1 µM: 102%
M14
  growth at 0.01 µM: 93%
UO-31
  growth at 0.01 µM: 89%
BT-549; read-out: GI50
  GI50: 2.12 µM
BT-549; [16]
  CC50: 7.21 µM
BT-549; read-out: TGI
  TGI: 5.42 µM
BT-549; read-out: pGI50 (converted)
  GI50: 2.14 µM
BT-549; [17]
  CC50: 72.4 µM
BT-549; read-out: pTGI (converted)
  TGI: 5.37 µM
OVCAR-8 [13]
  growth at 100 µM: 28%
OVCAR-8 [14]
  GI50: 3.31 µM
OVCAR-8 [14]; [16]
  CC50: > 1 µM
OVCAR-8 [14]; read-out: pLC50 (converted)
  CC50: > 100 µM
OVCAR-8 [14]; read-out: pTGI (converted)
  TGI: 13.5 µM
OVCAR-4 [6]; read-out: GI50
  GI50: 2.27 µM
OVCAR-4 [6]; read-out: TGI
  TGI: 7.75 µM
OVCAR-4 [6]; read-out: pGI50 (converted)
  GI50: 2.29 µM
OVCAR-4 [6]; [17]
  CC50: > 100 µM
OVCAR-4 [6]; read-out: pTGI (converted)
  TGI: 7.76 µM
OVCAR-8 [15]
  growth at 1 µM: 99%
OVCAR-4 [8]
  growth at 1 µM: 83%
NCI-H226 [9]
  growth at 100 µM: 50%
DU-145
  growth at 100 µM: 72%
